The text below walks through data of patent US7157452B2, “Substituted 4,9-dihydrocyclopenta{imn}phenanthridine-5-ones derivatives thereof and their uses” (MGI GP, Inc., priority 2001, dated 2007).

Read-outs that look alike come from different tables or passages of the source.

The assay deals with T1, purified recombinant human PARP (Homo sapiens, UniProt P09874).
T1 construct: purchased Trevigan (Gaithersburg, Md.)
Nature of the assay: PARP enzyme assay with [3H]NAD, scintillation counting. The assay is classed as biochemical. On the procedure: The reaction is initiated by incubating the mixture at 25° C. After 15 minutes of incubation, the reaction is terminated by adding 500 microliters of ice cold 20% (w/v) trichloroacetic acid. The precipitate formed is transferred onto a glass fiber filter (Packard Unifilter-GF/B) and washed three times with ethanol. After the filter is dried, the radioactivity is determined by scintillation counting.
Using the PARP assay described above, approximate IC50 (μM) values were obtained as shown in the following Table III, which also include specific embodiments of the compounds of the present invention: […]

Setting [1] is: Table III, read-out: approximate IC50.

T1 sequence (P09874 whole entry): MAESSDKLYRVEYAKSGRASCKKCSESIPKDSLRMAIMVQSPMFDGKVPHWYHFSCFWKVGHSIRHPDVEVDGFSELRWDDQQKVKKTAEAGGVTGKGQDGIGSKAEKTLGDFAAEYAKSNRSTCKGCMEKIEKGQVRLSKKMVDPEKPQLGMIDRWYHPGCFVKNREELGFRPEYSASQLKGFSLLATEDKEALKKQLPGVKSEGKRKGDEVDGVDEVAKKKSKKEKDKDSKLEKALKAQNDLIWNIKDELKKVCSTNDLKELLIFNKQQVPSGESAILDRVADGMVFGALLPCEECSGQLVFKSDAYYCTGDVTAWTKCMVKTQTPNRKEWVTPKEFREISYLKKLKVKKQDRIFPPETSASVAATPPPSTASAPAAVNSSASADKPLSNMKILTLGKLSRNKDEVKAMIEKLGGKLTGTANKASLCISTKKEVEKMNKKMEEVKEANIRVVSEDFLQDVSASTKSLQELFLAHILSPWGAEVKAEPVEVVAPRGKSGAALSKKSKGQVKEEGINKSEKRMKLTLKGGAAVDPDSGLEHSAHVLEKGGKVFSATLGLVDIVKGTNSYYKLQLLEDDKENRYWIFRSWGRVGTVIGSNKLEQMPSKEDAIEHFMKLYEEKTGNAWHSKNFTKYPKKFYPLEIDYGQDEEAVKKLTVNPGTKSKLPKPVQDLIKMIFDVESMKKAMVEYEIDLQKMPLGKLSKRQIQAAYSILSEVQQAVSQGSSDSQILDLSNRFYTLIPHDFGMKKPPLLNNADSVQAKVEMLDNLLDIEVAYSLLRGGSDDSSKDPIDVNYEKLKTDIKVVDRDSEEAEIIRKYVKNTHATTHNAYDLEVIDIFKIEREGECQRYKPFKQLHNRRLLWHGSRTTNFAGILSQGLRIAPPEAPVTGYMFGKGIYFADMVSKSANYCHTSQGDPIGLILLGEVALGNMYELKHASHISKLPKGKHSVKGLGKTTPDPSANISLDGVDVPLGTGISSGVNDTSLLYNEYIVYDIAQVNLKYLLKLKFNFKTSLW

With `CN1CCN(NS(=O)(=O)c2ccc3[nH]c(=O)c4cccc5c4c3c2C5)CC1` [Example 10], the IC50 – broadly, the point on the concentration scale where inhibition reaches its midpoint – turned out to be 129 nM under setting [1] and 129 nM (examples table, read-out: IC50).
As for `O=C(CN1CCN(Cc2ccccc2)CC1)Nc1ccc2[nH]c(=O)c3cccc4c3c2c1C4` [Example 33], the IC50 reads like this: under setting [1], 218 nM; (examples table, read-out: IC50) 218 nM.
As to `O=C(CNCCCN1CCOCC1)Nc1ccc2[nH]c(=O)c3cccc4c3c2c1C4` [Example 37], the IC50 runs as follows: under setting [1], 178 nM; (examples table, read-out: IC50) 178 nM.
On to `O=C(CN1CCN(Cc2ccncc2)CC1)Nc1ccc2[nH]c(=O)c3cccc4c3c2c1C4` [Example 54], for which the half-inhibitory concentration (IC50) is, setting by setting: under setting [1], 267 nM; (examples table, read-out: IC50) 267 nM.
`CCN(CC)CCNS(=O)(=O)c1ccc2[nH]c(=O)c3cccc4c3c2c1C4` [Example 20]: the IC50 by setting is: under setting [1], 77 nM; (examples table, read-out: IC50) 77 nM.
Consider `CN(C)CCCN1CCN(S(=O)(=O)c2ccc3[nH]c(=O)c4cccc5c4c3c2C5)CC1` [Example 29], for which the 50% inhibitory concentration (IC50) under setting [1] amounted to 109 nM and the IC50 (examples table, read-out: IC50) was 109 nM.
Regarding `CN(C)CCCN1CCN(S(=O)(=O)c2ccc3[nH]c(=O)c4cccc5c4c3c2C5)CC1` [Example 21], the 50% inhibitory concentration (IC50) under setting [1] turned out to be 64 nM and the concentration for half-maximal inhibition (IC50) (examples table, read-out: IC50) amounted to 64 nM.
`O=c1[nH]c2ccc(S(=O)(=O)N3CCN(CCN4CCCC4)CC3)c3c2c2c(cccc12)C3` [Example 30]: the half-inhibitory concentration (IC50) was 264 nM under setting [1] and 264 nM (examples table, read-out: IC50).
On to `O=C(CN1CCN(CC2CCCO2)CC1)Nc1ccc2[nH]c(=O)c3cccc4c3c2c1C4` (stereo not shown) [Example 35], for which the IC50 runs as follows: under setting [1], 193 nM; (examples table, read-out: IC50) 193 nM.
In the case of `O=c1[nH]c2ccc(S(=O)(=O)N3CCN(Cc4ccncc4)CC3)c3c2c2c(cccc12)C3` [Example 28], the IC50 stood at 406 nM under setting [1] and 406 nM (examples table, read-out: IC50).
For the compound `O=C(CNCCN1CCCC1)Nc1ccc2[nH]c(=O)c3cccc4c3c2c1C4` [Example 11], the IC50 came out at 49 nM under setting [1] and 49 nM (examples table, read-out: IC50).
As to `CCN(CC)CCNCC(=O)Nc1ccc2[nH]c(=O)c3cccc4c3c2c1C4` [Example 45], the IC50 is 133 nM under setting [1] and 133 nM (examples table, read-out: IC50).
With `CN(C)CCCN(C)CC(=O)Nc1ccc2[nH]c(=O)c3cccc4c3c2c1C4` [Example 48], the IC50 was determined as 144 nM under setting [1] and 144 nM (examples table, read-out: IC50).
As for `CN1CCN(CC(=O)Nc2ccc3[nH]c(=O)c4cccc5c4c3c2C5)CC1` [Example 31, 2-(4-Methyl-piperazin-1-yl)-N-(5-oxo-5,9-dihydro-4H-cyclopenta[lmn]phenanthridin-1-yl)-acetamide], the half-inhibitory concentration (IC50) reads like this: under setting [1], 45 nM; (examples table, read-out: IC50) 45 nM.
Turning to `O=C(CNCCN1CCOCC1)Nc1ccc2[nH]c(=O)c3cccc4c3c2c1C4` [Example 47], the IC50 is, setting by setting: under setting [1], 457 nM; (examples table, read-out: IC50) 457 nM.
Regarding `CC(=O)N1CCN(CC(=O)Nc2ccc3[nH]c(=O)c4cccc5c4c3c2C5)CC1` [Example 32, 2-(4-Acetyl-piperazin-1-yl)-N-(5-oxo-5,9-dihydro-4H-cyclopenta[lmn]phenanthridin-1-yl)-acetamide], the IC50 turned out to be 36 nM under setting [1] and 36 nM (examples table, read-out: IC50).
As for `CN1CCC(N2CCN(S(=O)(=O)c3ccc4[nH]c(=O)c5cccc6c5c4c3C6)CC2)CC1` [Example 23], the IC50 under setting [1] was 166 nM and the half-inhibitory concentration (IC50) (examples table, read-out: IC50) came to 166 nM.
For the compound `CCOC(=O)C1CCCN(S(=O)(=O)c2ccc3[nH]c(=O)c4cccc5c4c3c2C5)C1` (stereo not shown) [Example 2, 1-(5-Oxo-5,9-dihydro-4H-cyclopenta[lmn]phenanthridine-1-sulfonyl)-piperidine-3-carboxylic acid ethyl ester], the IC50 is, setting by setting: under setting [1], 137 nM; (examples table, read-out: IC50) 137 nM.
In the case of `CN1CCN(CCCNS(=O)(=O)c2ccc3[nH]c(=O)c4cccc5c4c3c2C5)CC1` [Example 19], the IC50 is 52 nM under setting [1] and 52 nM (examples table, read-out: IC50).
`O=C(CN1CCN(CCN2CCOCC2)CC1)Nc1ccc2[nH]c(=O)c3cccc4c3c2c1C4` [Example 55]: the IC50 is, setting by setting: under setting [1], 558 nM; (examples table, read-out: IC50) 558 nM.
Turning to `O=c1[nH]c2ccc(S(=O)(=O)N3CCN(CC4CCCO4)CC3)c3c2c2c(cccc12)C3` (stereo not shown) [Example 3], the half-maximal inhibitory concentration (IC50) amounted to 247 nM under setting [1] and 247 nM (examples table, read-out: IC50).
For `O=C(CN1CCN(c2ccc(F)cc2F)CC1)Nc1ccc2[nH]c(=O)c3cccc4c3c2c1C4` [Example 41], the 50% inhibitory concentration (IC50) turned out to be 336 nM under setting [1] and 336 nM (examples table, read-out: IC50).
On to `O=c1[nH]c2ccc(S(=O)(=O)N3CCN(CCN4CCCCC4)CC3)c3c2c2c(cccc12)C3` [Example 26], for which the 50% inhibitory concentration (IC50) under setting [1] was 314 nM and the IC50 (examples table, read-out: IC50) was determined as 314 nM.
In the case of `CN(C)CCN(C)CC(=O)Nc1ccc2[nH]c(=O)c3cccc4c3c2c1C4` [Example 57], the IC50 was 55 nM under setting [1] and 55 nM (examples table, read-out: IC50).
In the case of `CN1CCC(N2CCN(CC(=O)Nc3ccc4[nH]c(=O)c5cccc6c5c4c3C6)CC2)CC1` [Example 53], the IC50 was 119 nM under setting [1] and 119 nM (examples table, read-out: IC50).
Consider `O=c1[nH]c2ccc(S(=O)(=O)N3CCN(c4ccc(F)cc4)CC3)c3c2c2c(cccc12)C3` [Example 8], for which the half-maximal inhibitory concentration (IC50) reads like this: under setting [1], 335 nM; (examples table, read-out: IC50) 335 nM.
Turning to `O=c1[nH]c2ccc(S(=O)(=O)NN3CCOCC3)c3c2c2c(cccc12)C3` [Example 16], the 50% inhibitory concentration (IC50) reads like this: under setting [1], 92 nM; (examples table, read-out: IC50) 92 nM.
`CCN(CC)CCCNCC(=O)Nc1ccc2[nH]c(=O)c3cccc4c3c2c1C4` [Example 46]: the concentration for half-maximal inhibition (IC50) amounted to 118 nM under setting [1] and 118 nM (examples table, read-out: IC50).
For `CCN(CC)CCNS(=O)(=O)c1ccc2[nH]c(=O)c3cccc4c3c2c1C4` [Example 13], the half-maximal inhibitory concentration (IC50) is, setting by setting: under setting [1], 48 nM; (examples table, read-out: IC50) 48 nM.
In the case of `O=C(CNCCN1CCCCC1)Nc1ccc2[nH]c(=O)c3cccc4c3c2c1C4` [Example 38], the IC50 reads like this: under setting [1], 175 nM; (examples table, read-out: IC50) 175 nM.
For the compound `O=C(CN1CCN(c2ccc(F)cc2)CC1)Nc1ccc2[nH]c(=O)c3cccc4c3c2c1C4` [Example 40], the concentration for half-maximal inhibition (IC50) by setting is: under setting [1], 230 nM; (examples table, read-out: IC50) 230 nM.
As for `CCN(CC)CCCNS(=O)(=O)c1ccc2[nH]c(=O)c3cccc4c3c2c1C4` [Example 14], the 50% inhibitory concentration (IC50) was 91 nM under setting [1] and 91 nM (examples table, read-out: IC50).
With `O=C(CNCCCc1ccccc1)Nc1ccc2[nH]c(=O)c3cccc4c3c2c1C4` [Example 36], the half-maximal inhibitory concentration (IC50) worked out at 188 nM under setting [1] and 188 nM (examples table, read-out: IC50).
Take `O=c1[nH]c2ccc(S(=O)(=O)N3CCN(c4ccc(C(F)(F)F)cc4)CC3)c3c2c2c(cccc12)C3` [Example 7]: the IC50 under setting [1] turned out to be 269 nM and the IC50 (examples table, read-out: IC50) is 269 nM.
In the case of `O=c1[nH]c2ccc(S(=O)(=O)NCCCc3ccccc3)c3c2c2c(cccc12)C3` [Example 4], the concentration for half-maximal inhibition (IC50) runs as follows: under setting [1], 1130 nM; (examples table, read-out: IC50) 1130 nM.
As for `CN1CCCC(CN2CCN(CC(=O)Nc3ccc4[nH]c(=O)c5cccc6c5c4c3C6)CC2)C1` (stereo not shown) [Example 51], the IC50 reads like this: under setting [1], 178 nM; (examples table, read-out: IC50) 178 nM.
With `O=c1[nH]c2ccc(S(=O)(=O)NCCc3ccccn3)c3c2c2c(cccc12)C3` [Example 15], the concentration for half-maximal inhibition (IC50) was 114 nM under setting [1] and 114 nM (examples table, read-out: IC50).
Take `CN1CCC(CN2CCN(S(=O)(=O)c3ccc4[nH]c(=O)c5cccc6c5c4c3C6)CC2)CC1` [Example 25]: the IC50 stood at 165 nM under setting [1] and 165 nM (examples table, read-out: IC50).
For `O=C(CN1CCN(c2ccncc2)CC1)Nc1ccc2[nH]c(=O)c3cccc4c3c2c1C4` [Example 56], the IC50 is, setting by setting: under setting [1], 204 nM; (examples table, read-out: IC50) 204 nM.
With `O=c1[nH]c2ccc(S(=O)(=O)N3CCN(c4ccncc4)CC3)c3c2c2c(cccc12)C3` [Example 24], the IC50 was determined as 929 nM under setting [1] and 929 nM (examples table, read-out: IC50).
Take `O=c1[nH]c2ccc(S(=O)(=O)NCCCN3CCOCC3)c3c2c2c(cccc12)C3` [Example 6]: the IC50 under setting [1] amounted to 63 nM and the IC50 (examples table, read-out: IC50) worked out at 63 nM.
Regarding `O=c1[nH]c2ccc(S(=O)(=O)NCCN3CCCC3)c3c2c2c(cccc12)C3` [Example 5], the concentration for half-maximal inhibition (IC50) was found to be 89 nM under setting [1] and 89 nM (examples table, read-out: IC50).
In the case of `O=c1[nH]c2ccc(S(=O)(=O)N3CCN(c4ccc(F)cc4F)CC3)c3c2c2c(cccc12)C3` [Example 9], the 50% inhibitory concentration (IC50) is 211 nM under setting [1] and 211 nM (examples table, read-out: IC50).
On to `O=C(CN1CCN(c2ccccn2)CC1)Nc1ccc2[nH]c(=O)c3cccc4c3c2c1C4` [Example 42], for which the IC50 was 158 nM under setting [1] and 158 nM (examples table, read-out: IC50).
In the case of `O=c1[nH]c2ccc(S(=O)(=O)N3CCN(CCN4CCCC4)CC3)c3c2c2c(cccc12)C3` [Example 22], the IC50 under setting [1] turned out to be 115 nM and the half-maximal inhibitory concentration (IC50) (examples table, read-out: IC50) worked out at 115 nM.
As to `O=C(CN1CCN(CCN2CCCC2)CC1)Nc1ccc2[nH]c(=O)c3cccc4c3c2c1C4` [Example 58], the IC50 runs as follows: under setting [1], 390 nM; (examples table, read-out: IC50) 390 nM.
Turning to `O=C(CN1CCN(c2ccc(C(F)(F)F)cc2)CC1)Nc1ccc2[nH]c(=O)c3cccc4c3c2c1C4` [Example 39], the IC50 came to 219 nM under setting [1] and 219 nM (examples table, read-out: IC50).
Turning to `O=c1[nH]c2ccc(S(=O)(=O)N3CCN(CCN4CCOCC4)CC3)c3c2c2c(cccc12)C3` [Example 27], the half-inhibitory concentration (IC50) under setting [1] came to 634 nM and the IC50 (examples table, read-out: IC50) is 634 nM.
For `O=C(CN1CCC(N2CCCC2)CC1)Nc1ccc2[nH]c(=O)c3cccc4c3c2c1C4` [Example 44], the IC50 under setting [1] was determined as 94 nM and the half-maximal inhibitory concentration (IC50) (examples table, read-out: IC50) was 94 nM.
For the compound `CN(C)CCCN(C)S(=O)(=O)c1ccc2[nH]c(=O)c3cccc4c3c2c1C4` [Example 18], the half-inhibitory concentration (IC50) worked out at 110 nM under setting [1] and 110 nM (examples table, read-out: IC50).
In the case of `CN(C)CCN1CCN(CC(=O)Nc2ccc3[nH]c(=O)c4cccc5c4c3c2C5)CC1` [Example 50], the IC50 under setting [1] came out at 115 nM and the IC50 (examples table, read-out: IC50) was 115 nM.
As for `O=C(CN1CCOCC1)Nc1ccc2[nH]c(=O)c3cccc4c3c2c1C4` [Example 34], the half-maximal inhibitory concentration (IC50) came to 58 nM under setting [1] and 58 nM (examples table, read-out: IC50).
`CN1CCN(CCCNS(=O)(=O)c2ccc3[nH]c(=O)c4cccc5c4c3c2C5)CC1` [Example 12]: the half-inhibitory concentration (IC50) by setting is: under setting [1], 64 nM; (examples table, read-out: IC50) 64 nM.
